Test: Daily food intake with subcutaneous steroid supplementation (Example 3)
Type: in vivo, rat
Settings: group C (oral corn oil vehicle, no extract), steroid 5 mg/kg/day sc on days 4 and 5
Procedure: Male Wistar rats weighing about 250 g (2 groups designated as group C, control; and E, experimental treatment; 24 individuals per group) were kept as described in the Example 1 from day 1 to day 6 of the experiment. On days 1 through 4, a botanical extract from a plant Asclepias incarnata enriched with pregnane derivatives according to Formula (I) was administered orally in doses of 100 mg/kg body weight/day in 1 ml of corn oil (Sigma #C8267). As a negative control (vehicle), animals were administered orally with 1 ml of corn oil alone. On day 4 of the experiment both groups of animals C and E were further subdivided into 6 groups containing 4 animals each, designated C, control; PREG, pregnenolone; PROG, progesterone; DEOX, deoxycorticosterone; CORT, corticosterone; and DHEA, dehydroepiandrosterone. On day 4 and day 5, animals from these subgroups received a subcutaneous injection of 5 mg/kg body weight/day of the respective steroid compound in 5% DMSO and corn oil; total volume of 0.1 ml. The control animals in group C subgroup C and group E subgroup C received a subcutaneous injection of vehicle (5% DMSO in corn oil) only. On days 4 and 6 food intake was measured. […]

SMILES: C[C@]12C[C@H](O)[C@H]3[C@@H](CCC4=CC(=O)CC[C@@]43C)[C@@H]1CC[C@@H]2C(=O)CO [CORT, corticosterone]
- Daily food intake, Day 6: no direct effect on food intake alone
